Experimental data: ChEMBL document CHEMBL5727979, “Thiazolidinedione derivative and use thereof” (2020)

target: T1, 15-hydroxyprostaglandin dehydrogenase [NAD(+)] (Homo sapiens, UniProt P15428); experiment: Inhibitory Activity Assay: To confirm whether the compounds according to the present disclosure have an effect of inhibiting 15-PGDH, the NADH, which appears at the wavelength of 340 nm, of Compounds 1 to 105 purified in (1) nm was measured by using fluorescence spectra photometer. That is, the cells were treated with a solution including 50 mM Tris-HCl (pH 7.5), 0.1 mM DTT, 0.25 mM (NAD+), 10 μg of purified 15-PGDH enzyme, 21 μM PGE2. and various concentrations (0.0001 μM to 64 μM) of the derivative compound according to the present disclosure. In this case, the total volume of the solution was 2 ml. Then, the absorbance of the reaction mixture was recorded at the wavelength of 340 nm. To measure the activity of the derivative compounds according to the present disclosure, which is an inhibitor of 15-PGDH, the average value of NADH absorbance at 340 nm at various concentrations was obtained from a standard curve. The results of the 15-PGDH inhibitory activity of the derivative compounds according to the present disclosure are shown in Tables 1 and 2 below.
T1 sequence (P15428 whole entry): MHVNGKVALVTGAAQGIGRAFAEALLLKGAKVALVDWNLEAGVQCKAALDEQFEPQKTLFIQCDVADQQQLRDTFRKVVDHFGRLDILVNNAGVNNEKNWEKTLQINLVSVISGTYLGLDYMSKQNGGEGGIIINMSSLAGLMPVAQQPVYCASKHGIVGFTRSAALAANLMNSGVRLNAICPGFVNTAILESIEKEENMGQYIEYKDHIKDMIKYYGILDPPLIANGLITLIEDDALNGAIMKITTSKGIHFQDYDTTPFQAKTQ

IC50 | SMILES
431 nM | O=C1NC(=O)/C(=C/c2ccc(OC(=O)C3CCC3)cc2)S1
50.8 nM | O=C(CCC1CCCC1)Oc1ccc(/C=C2\SC(=O)NC2=O)c(Cl)c1

SMILES | IC50
O=C1NC(=O)/C(=C/c2ccc(OC(=O)c3ccccc3)cc2)S1 | 124 nM
